Laboratory results taken from US5629430A, “Trifluoromethylpyrroloindolecarboxylic acid ester and process for production thereof” (Kyorin Pharmaceutical Co., Ltd., priority 1992, dated 1997).
Values after ≈ are worked out from the molar mass of the structure shown. Where two headings read alike, the source gives them in different places.

Tests used:
[1] = test system: P388 mouse leukemia cells; assay: Activity against tumor cell growth (P388, MTT, 72 h); format: cell-based; details: read-out: IC50 (50% growth inhibition concentration)
How it was run: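 P388 cells at 1.5×10^5 cells/ml in RPMI1640 with 10% FBS, 2 mM glutamine and 5 μM 2-hydroxyethyldisulfide; DMSO-dissolved compound diluted in medium, 72 h at 37 °C, 5% CO2. MTT added for 3 h, formazan dissolved in HCl-isopropanol, A540 read. IC50 from absorbance ratio versus untreated cells.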

P388 cells = assay: Antineoplastic activity, mice having P388 cells transplanted in abdominal cavity; format: in vivo, mouse (female, CDF1 strain); details: next day after transplantation, >=130% effective
Protocol: (§1) The test compound was dissolved in dimethylsulfoxide, and the solution was adequately diluted with 10% Emulfore EL620(produced by Rhone Poulenc Co.) to prepare the test compound solution. The antineoplastic activity was evaluated as below.
To the abdominal cavity of a female mouse (CDF1 strain, 8 to 9 week age), 1×10^6 P388 cells were transplanted. Next day, the test medicine solution was injected intraperitonealy in a single dose. Five to eight mice were employed for the solvent-dosed control group, and two mice were employed for each of the dosed groups. The antineoplastic effect was evaluated by the ratio (T/C, %) of the average survival days of the dosed group (T) to the average survival days of the solvent-dosed control group(C). The T/C ratio of 130% or more is evaluated to be effective.
"Cured": Survived for 60 days or longer

Sarcoma-180 cells = assay: Antineoplastic activity, mice having Sarcoma-180 cells transplanted subcutaneously; format: in vivo, mouse (female, CDR strain); details: Mus musculus, Sarcoma-180, iv, 144 h, tumor weighed six days after dosage, read-out: T/C (average tumor weight, dosed vs. solvent-dosed control); for response vs control in vivo at 0.5 mg/kg: i.v. 0.5 mg/kg single dose; for response vs control in vivo at 0.25 mg/kg: i.v. 0.25 mg/kg single dose
Protocol: as §1
To the lateral region of a female mouse (CDR strain, 5 to 6 week age), 3.6×10^6 to 5×10^6 Sarcoma-180 cells were transplanted subcutaneously. Next day, the test medicine solution was injected into the tail vein in a single dose. Eight to twelve mice were employed for the solvent-dosed control group, and five mice were employed for the dosed group. Six days after the dosage, the tumor was cut out, and the weight thereof was measured. The antineoplastic effect was evaluated by the ratio (T/C) of the average tumor weight of the dosed group (T) to the average tumor weight of the solvent-dosed control group (C).

Colon-26 cells = assay: Antineoplastic activity, mice having Colon-26 cells transplanted subcutaneously; format: in vivo, mouse (female, CDF1 strain); details: Mus musculus, Colon 26, iv, 168 h, read-out: T/C (average tumor weight, dosed vs. solvent-dosed control); for response vs control in vivo at 1 mg/kg: i.v. 1.0 mg/kg single dose on sixth day
Protocol: as §1
To the lateral region of a female mouse (CDF1 strain, 8 to 12 week age), 1×10^6 Colon-26 cells were transplanted subcutaneously. On the sixth day after the transplantation, the test medicine solution-was injected into the tail vein in a single dose. Seven to twelve mice were employed for the solvent-dosed control group, and five mice were employed for the dosed group. One week after the dosage, the tumor was cut out, and the weight thereof was measured. The antineoplastic effect was evaluated by the ratio (T/C) of the average tumor weight of the dosed group (T) to the average tumor weight of the solvent-dosed control group (C).

[2] = P388 mouse leukemia cells, 72 h, 37° C., MTT
[3] = i.v. 0.5 mg/kg single dose on sixth day, tumor weighed one week after dosage
[4] = tumor weighed one week after dosage
[5] = i.v. 0.25 mg/kg single dose on sixth day, tumor weighed one week after dosage

COC(=O)c1c(C(F)(F)F)[nH]c2c(O)cc3c(c12)C(CCl)CN3C(=O)c1cc2cc(OC)c(OC)c(OC)c2[nH]1 (stereo not drawn) [Example 6, methyl 1-chloromethyl-5-hydroxy-7-trifluoromethyl-3-(5,6,7-trimethoxy-1H-indol-2-ylcarbonyl)-1,2,3,6-tetrahydropyrrolo[3,2-e]indole-8-carboxylate]
IC50 [1, 2]: 0.24 ng/mL (≈ 0.412 nM)
T/C (average survival days, dosed vs. solvent-dosed control) (P388 cells; i.p. 0.5 mg/kg single dose): 206%

COC(=O)c1c(C(F)(F)F)[nH]c2c(O)cc3c(c12)C(CCl)CN3C(=O)c1cc2cc(OC)ccc2[nH]1 (stereo not drawn) [Example 8, Methyl 1-chloromethyl-5-hydroxy-3-(5-methoxy-1H-indol-2-ylcarbonyl)-7-trifluoromethyl-1,2,3,6-tetrahydropyrrolo[3,2-e]indole-8-carboxylate]
IC50 [1, 2]: 0.21 ng/mL (≈ 0.402 nM)
T/C (average survival days, dosed vs. solvent-dosed control) (P388 cells; i.p. 1.0 mg/kg single dose): 198%

COC(=O)c1c(C(F)(F)F)[nH]c2c(O)cc3c(c12)C(CCl)CN3C(=O)c1cc2cc(NC(=O)c3cc4ccccc4o3)ccc2[nH]1 (stereo not drawn) [Example 10, Methyl 3-[5-[(benzofuran-2-ylcarbonyl)amino]-1H-indol-2-ylcarbonyl]-1-chloromethyl-5-hydroxy-7-trifluoromethyl-1,2,3,6-tetrahydropyrrolo[3,2-e]indole-8-carboxylate]
IC50 [1, 2]: 0.52 ng/mL (≈ 0.799 nM)
response vs control in vivo at 0.5 mg/kg (Sarcoma-180 cells): 15%
response vs control in vivo at 0.5 mg/kg (Colon-26 cells; [3]): 15%

COC(=O)c1c(C(F)(F)F)[nH]c2c(O)cc3c(c12)C(CCl)CN3C(=O)c1cc2cc(-c3cc4ccccc4o3)ccc2[nH]1 (stereo not drawn) [Example 12]
response vs control in vivo at 1 mg/kg (Sarcoma-180 cells; i.v. 1.0 mg/kg single dose): 11%
response vs control in vivo at 1 mg/kg (Colon-26 cells; [4]): 16%

COC(=O)c1c(C(F)(F)F)[nH]c2c(O)cc3c(c12)C(CCl)CN3C(=O)c1cc2cc(NC(=O)c3cc4cc(OC)c(OC)c(OC)c4[nH]3)ccc2[nH]1 (stereo not drawn) [Example 13, Methyl 1-chloromethyl-5-hydroxy-7-trifluoromethyl-3-[5-[(5,6,7-trimethoxy-1H-indol-2-ylcarbonyl)amino]-1H-indol-2-ylcarbonyl]-1,2,3,6-tetrahydropyrrolo[3,2-e]indole-8-carboxylate]
IC50 [1, 2]: 0.21 ng/mL (≈ 0.284 nM)
response vs control in vivo at 0.25 mg/kg (Sarcoma-180 cells): 11%
response vs control in vivo at 0.25 mg/kg (Colon-26 cells; [5]): 17%

COC(=O)c1c(C(F)(F)F)[nH]c2c(O)cc3c(c12)C(CCl)CN3C(=O)c1cc2cc(NC(=O)c3cc4c(OC)c(OC)c(OC)cc4[nH]3)ccc2[nH]1 (stereo not drawn) [Example 14, Methyl 1-chloromethyl-5-hydroxy-7-trifluoromethyl-3-[5-[(4,5,6-trimethoxy1H-indol-2-ylcarbonyl)amino]-1H-indol-2-ylcarbonyl]-1,2,3,6-tetrahydropyrrolo[3,2-e]indole-8-carboxylate]
IC50 [1, 2]: 0.1 ng/mL (≈ 0.135 nM)
response vs control in vivo at 0.5 mg/kg (Sarcoma-180 cells): 7%
response vs control in vivo at 0.5 mg/kg (Colon-26 cells; [3]): 5%

COC(=O)c1c(C(F)(F)F)[nH]c2c(O)cc3c(c12)C(CCl)CN3C(=O)c1cc2cc(NC(=O)c3cnc4ccccc4c3)ccc2[nH]1 (stereo not drawn) [Example 16, Methyl 1-chloromethyl-5-hydroxy-3-[5-[(quinoline-3-ylcarbonyl)amino]-1H-indol-2-ylcarbonyl]-7-trifluoromethyl-1,2,3,6-tetrahydropyrrolo[3,2-e]indole-8-carboxylate]
IC50 [1, 2]: 0.16 ng/mL (≈ 0.242 nM)
response vs control in vivo at 0.5 mg/kg (Sarcoma-180 cells): 17%
response vs control in vivo at 0.5 mg/kg (Colon-26 cells; [3]): 16%

COC(=O)c1c(C(F)(F)F)[nH]c2c(O)cc3c(c12)C(CCl)CN3C(=O)c1cc2cc(NC(=O)c3cc4ccccc4cn3)ccc2[nH]1 (stereo not drawn) [Example 17, Methyl 1-chloromethyl-5-hydroxy-3-[5-[(isoquinolin-3-ylcarbonyl)amino]-1H-indol-2-ylcarbonyl]-7trifluoromethyl-1,2,3,6-tetrahydropyrrolo[3,2-e]indole-8-carboxylate]
IC50 [1, 2]: 0.09 ng/mL (≈ 0.136 nM)
response vs control in vivo at 0.25 mg/kg (Sarcoma-180 cells): 25%
response vs control in vivo at 0.25 mg/kg (Colon-26 cells; [5]): 18%

COC(=O)c1c(C(F)(F)F)[nH]c2c(O)cc3c(c12)C(CCl)CN3C(=O)c1cc2cc(NC(=O)c3cc4c(OC)c(OC)c(OC)cc4cn3)ccc2[nH]1 (stereo not drawn) [Example 18, Methyl 1-chloromethyl-5-hydroxy-7-trifluoromethyl-3-[5-[(5,6,7-trimethoxyisoquinolin-3-ylcarbonyl)amino]-1H-indol-2-ylcarbonyl]-1,2,3,6-tetrahydropyrrolo[3,2-e]indole-8-carboxylate]
IC50 [1, 2]: 0.09 ng/mL (≈ 0.12 nM)
response vs control in vivo at 0.25 mg/kg (Sarcoma-180 cells): 25%
response vs control in vivo at 0.25 mg/kg (Colon-26 cells; [5]): 7%

COC(=O)c1c(C(F)(F)F)[nH]c2c1[C@@]13C[C@@H]1CN(C(=O)/C=C/c1ccc(OC)cc1)C3=CC2=O [Example 90, Methyl (7bR, 8aS)-2-[2-(4-methoxyphenyl)ethylene-1-ylcarbonyl)-6-trifluoromethyl-1,2,8,8a-tetrahydrocyclopropa[c]pyrrolo[3,2-e]indol-4 (5H)-one-7-carboxylate]
IC50 [1, 2]: 0.9 ng/mL (≈ 1.91 nM)
response vs control in vivo at 1 mg/kg (Colon-26 cells; [4]): 31%

COC(=O)c1c(C(F)(F)F)[nH]c2c(OC(=O)N3CCN(C)CC3)cc3c(c12)[C@H](CCl)CN3C(=O)c1cc2cc(NC(=O)c3cc4c(OC)c(OC)c(OC)cc4cn3)ccc2[nH]1 [Example 97]
IC50 ([1]; Mus musculus, P388, 72 h): 5.8 ng/mL (≈ 6.6 nM)
response vs control in vivo at 0.5 mg/kg (Colon-26 cells): 11%

COC(=O)c1c(C(F)(F)F)[nH]c2c(OC(=O)N3CCN(C)CC3)cc3c(c12)[C@H](CCl)CN3C(=O)c1cc2cc(NC(=O)c3cc4c(cn3)[nH]c3ccccc34)ccc2[nH]1 [Example 98, Methyl (1S)-1-chloromethyl-5-(4-methylpiperazin-1-ylcarbonyl)oxy-3-[5-[(9H-pyrido[3,4-b]indol-3-ylcarbonyl)amino]-1H-indol-2-ylcarbonyl]-7-trifluoromethyl-1,2,3,6-tetrahydropyrrolo[3,2-e]indole-8-carboxylate]
IC50 ([1]; Mus musculus, P388, 72 h): 5.7 ng/mL (≈ 6.89 nM)
response vs control in vivo at 0.5 mg/kg (Colon-26 cells): 29%

COC(=O)c1c(C(F)(F)F)[nH]c2c(OC(=O)N3CCN(C)CC3)cc3c(c12)[C@H](CCl)CN3C(=O)c1cc2cc(NC(=O)c3cc4ccccc4cn3)ccc2[nH]1 [Example 107, Methyl (1S)-1-chloromethyl-3-[5-[(isoquinolin-3-ylcarbonyl)amino]-1H-indol-2-ylcarbonyl]-5-(4-methylpiperazin-1-ylcarbonyl)oxy-7-trifluoromethyl-1,2,3,6-tetrahydropyrrolo[3,2-e]indole-8-carboxylate]
IC50 ([1]; Mus musculus, P388, 72 h): 4.6 ng/mL (≈ 5.84 nM)
response vs control in vivo at 0.5 mg/kg (Colon-26 cells): 7%

COC(=O)c1c(C(F)(F)F)[nH]c2c(O)cc3c(c12)[C@H](CCl)CN3C(=O)c1cc2cc(NC(=O)Nc3ccc4[nH]c(C(=O)N5C[C@@H](CCl)c6c5cc(O)c5[nH]c(C(F)(F)F)c(C(=O)OC)c65)cc4c3)ccc2[nH]1 [Example 108, (S,S)-3-3'-[Carbonylbis(imino-1H-indol-5,2-dicarbonyl)]bis-[1-chloromethyl-5-hydroxy-7-trifluoromethyl-1,2,3,6-tetrahydropyrrolo[3,2-e]indole-8-carboxylic acid methyl ester]]
IC50 [1, 2]: 0.007 ng/mL (≈ 0.00673 nM)
response vs control in vivo at 0.0156 mg/kg (Colon-26 cells; i.v. 0.0156 mg/kg single dose on sixth day, tumor weighed one week after dosage): 6%

COC(=O)c1c(C(F)(F)F)[nH]c2c(OC(=O)N3CCN(C)CC3)cc3c(c12)[C@H](CCl)CN3C(=O)c1cc2cc(NC(=O)Nc3ccc4[nH]c(C(=O)N5C[C@@H](CCl)c6c5cc(OC(=O)N5CCN(C)CC5)c5[nH]c(C(F)(F)F)c(C(=O)OC)c65)cc4c3)ccc2[nH]1 [Example 109, (S,S)-3-3'-[Carbonylbis(imino-1H-indol-5,2-dicarbonyl)]bis-[1-chloromethyl-5-(4-methylpiperazin-1-ylcarbonyl)oxy-7-trifluoromethyl-1,2,3,6-tetrahydropyrrolo[3,2-e]indole-8-carboxylic acid methyl ester]]
IC50 ([1]; Mus musculus, P388, 72 h): 53 ng/mL (≈ 41 nM)
response vs control in vivo at 0.25 mg/kg (Colon-26 cells): 7%
